EC50 data for 96 compounds are collected here from PubChem BioAssay AID1902 (Broad Institute, 2009).

The source made the active and inactive calls.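 Rule for the calls: active = EC50 no more than a set limit of log units above the highest dose; inactive = the rest.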

The assay addresses S. pyogenes SKKanGAS, kanamycin survival, BacTiterGlo, 6 h. The assay is described as follows: SKKanGAS survival reduction under kanamycin, dose response, streptokinase promoter inhibitor project, SKKanGAS strain, luminescence, dose confirmation (AID 1902).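 Note: lower survival reflects blocked streptokinase promoter driving kanamycin resistance gene.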
For the compound `COc1cc2c3c(c1)/C(=C1/SC(=S)NC1=O)C(=O)N3C(C)(C)C=C2C`, the EC50 was 1100 nM. Regarding `Cc1ccsc1C(=O)OCC(=O)c1cc2ccccc2o1`, the EC50 was > 15000 nM (inactive). As for `CC1CC(C)(C)n2c(O)c(N=NC(N)=S)c3cccc1c32` (stereo unspecified), the EC50 is 4840 nM. For the compound `O=C(CCCSc1ccccc1)Nc1nc(-c2ccccn2)cs1`, the EC50 is 6170 nM. For `COc1ccc(-n2nc(C(=O)c3cccs3)cc(-c3nc4ccccc4[nH]3)c2=N)cc1`, the EC50 was 1200 nM. In the case of `Cn1c(=O)[nH]c(=O)c2c1nc(N1CCC(Cc3ccccc3)CC1)n2Cc1ccccc1`, the EC50 was 3910 nM.

For `CCC(NC(=O)Nc1nnc(C(F)(F)F)s1)(C(F)(F)F)C(F)(F)F`, the EC50 is 1420 nM.

Turning to `N=c1c(-c2nc3ccccc3[nH]2)cc(C(=O)c2cccs2)nn1-c1ccccc1`, the EC50 was 1890 nM. In the case of `O=c1c2cc(Br)ccc2nc(-c2ccc(Cl)cc2)n1O`, the EC50 was 1070 nM. On to `Nc1c(C(=O)OCc2ccccc2)c2nc3ccccc3nc2n1Cc1cccs1`, for which the EC50 is 5040 nM. For the compound `COc1cc(/C=N/Nc2nc(Nc3ccc(C)cc3)nc(-n3nc(C)cc3C)n2)cc(OC)c1OC`, the EC50 was 171 nM. Turning to `Cc1cc(/C=N/n2cnnc2)c(C)n1-c1ccc(OCc2ccc(Cl)cc2)cc1`, the EC50 is 6190 nM. In the case of `Cc1cc2c(cc1C)CSC(c1c(O)ccc3ccccc13)SC2`, the EC50 is 2080 nM. The same measure for `COc1ccccc1-c1nnc(Nc2nc3c(OC)cccc3s2)o1`: 803 nM; for `O=C(N/N=C/c1ccccc1O)NC12CC3CC(CC(C3)C1)C2`: 8680 nM.

`CCc1nc(N)nc(N)c1-c1ccc(Cl)cc1`: the EC50 was 3990 nM. Take `Cc1nnc(SCC2=C(C(=O)O)N3C(=O)C(NC(=O)Cn4nc(C)c(Cl)c4C)C3SC2)s1` (stereo unspecified): the EC50 is under 60 nM. Then `CN(C(=S)NC(=O)c1ccccc1)C1CCCCC1`, with > 15000 nM (inactive); and `O=C(CN1c2ccccc2Sc2ccccc21)NNC(=O)Nc1ccc(Cl)c(Cl)c1`, with 2230 nM; and `Cc1ccccc1CN(C)CC(=O)Nc1ccccc1-c1ccccc1`, with 3300 nM. With `Nc1nonc1C(=O)NCCN=Cc1cc(Cc2ccccc2)cc(Br)c1O`, the EC50 is 5000 nM. Then `Oc1ccccc1/C=N/NC(=S)NC1CC2C=CC1C2` (stereo unspecified), with 5690 nM. The same measure for `CCCSc1nsc(NC(=O)C(c2ccccc2)c2ccccc2)n1`: 3030 nM; for `Cc1cc2nc(CSc3ccccc3)cc(=O)n2[nH]1`: 3820 nM. The same measure for `O=C(NNC1=C(C(=O)C(F)(F)F)CCC1)c1ccccc1O`: 724 nM; for `COc1ccccc1CNC(=O)CSc1nc(=O)n(Cc2ccncc2)c2c1CCC2`: > 15000 nM (inactive); for `COc1ccc(CN(C)S(=O)(=O)c2nnc(NC(=O)c3ccccc3Br)s2)cc1`: 3510 nM.

On to `COc1ccc(OC)c(CCNC(=O)C(=O)Nc2ccc3nc4n(c(=O)c3c2)CCCCC4)c1`, for which the EC50 is 10100 nM. `Cc1cccc(C)c1-n1cccc1/C=C1\SC(=S)N(c2cccc(C(=O)O)c2)C1=O`: the EC50 was 2260 nM. In the case of `NC(=O)c1cc(C(=O)Cc2ccccc2)c[nH]1`, the EC50 was 2230 nM. The same measure for `Oc1c(Cl)cc(Cl)cc1C=Nc1cc(C(F)(F)F)ccc1N1CCc2ccccc2C1`: 3000 nM; for `CC1CCCCC1NC(=O)CCn1ccc2cc(S(=O)(=O)N3CCCC3)ccc21` (stereo unspecified): > 15000 nM (inactive); for `Cc1ccc(S(=O)(=O)Nc2cccc3ncccc23)s1`: 2870 nM. `O=C(COc1ccc(-c2ccccc2)cc1)N/N=C/c1cc(O)ccc1Br`: the EC50 was 2270 nM. In the case of `COc1cc(C(=O)N/N=C/c2ccc(OC(=O)c3ccccc3Cl)c(OC)c2)ccc1O`, the EC50 is 5640 nM. For the compound `O=S(=O)(Nc1ccc(-n2cccc2)cc1)c1ccc(Cl)c(Cl)c1`, the EC50 is 6200 nM. Turning to `C#CCN1C(=O)S/C(=C\c2ccc(-c3ccc(Cl)c(C(=O)O)c3)o2)C1=O`, the EC50 was 2840 nM. On to `O=c1c(O)c(-c2cccs2)oc2ccc(Cl)cc12`, for which the EC50 was 2060 nM. For `Cn1c(=O)c2c(nc(SCc3ccccc3)n2Cc2ccc(Cl)cc2)n(C)c1=O`, the EC50 was 2300 nM. As for `Cc1cccc(OCC(=O)NCC(=O)N/N=C/c2cc(Br)cc(Br)c2O)c1`, the EC50 is 723 nM. Then `COc1ccccc1NS(=O)(=O)c1cc(NC(=S)NCC2CCCO2)ccc1C` (stereo unspecified), with > 15000 nM (inactive); and `CC12CC3(C)CC(C)(C1)CC(C(=O)NC1=NCCS1)(C2)C3`, with 992 nM.

With `O=C(O)c1ccc(N/N=C/c2ccc(-c3ccc(Br)cc3)o2)cc1`, the EC50 was 2360 nM. As to `Cc1nn(-c2ccccc2)c(C)c1/C=N/NC(=O)c1cc(C23CC4CC(CC(C4)C2)C3)[nH]n1`, the EC50 is 6980 nM. Take `Cc1c(Cc2ccccc2)c(=O)oc2cc(OCc3ccc(C(=O)O)cc3)ccc12`: the EC50 is 5900 nM. On to `O=c1c2cc(N3CCOCC3)ccc2[nH]c(=S)n1CCc1ccccc1`, for which the EC50 was 482 nM. As to `Cc1cccc2sc(NNC(=O)c3cc(=O)c4ccccc4o3)nc12`, the concentration giving a half-maximal response (EC50) is 420 nM. Take `N#C/C(=N\Nc1ccc(Cl)cc1)C(N)=S`: the EC50 is > 15000 nM (inactive). Then `C=CC1=C(C(=O)O)N2C(=O)[C@@H](NC(=O)/C(=N/OCC(=O)O)c3csc(N)n3)[C@H]2SC1`, with under 60 nM; and `COC(=O)c1ccc(CSc2cc(C)c3cc(C)cc(C)c3n2)o1`, with 4860 nM; and `CC(C)(C)c1cc(NCc2ccccn2)n2ncc(-c3ccccc3)c2n1`, with 171 nM. For `O=C(Cc1csc(Nc2nc(=S)[nH]c3ccccc23)n1)NCCCN1CCN(c2cccc(Cl)c2)CC1`, the EC50 is 6120 nM. For the compound `CCN1/C(=C/C=C/c2sc3ccccc3[n+]2CC)Sc2ccccc21`, the EC50 was 2150 nM.

Turning to `COc1ccc(OC)c(/C=C/c2ccc3cccc(O)c3n2)c1`, the EC50 was 197 nM. Consider `CSc1c(SCc2ccccc2)cnn(Cc2ccccc2)c1=O`, for which the EC50 was 3950 nM. Then `CC1(C)CC(=O)C(C2C3=C(CC(C)(C)CC3=O)Oc3c(Br)cc(Br)cc32)=C(O)C1` (stereo unspecified), with 4060 nM; and `CCN(CC)c1ccc(-n2cc3c(=O)n(C)c(=O)n(C)c3c2)cc1`, with 3430 nM; and `O=S(=O)(Nc1cccc2ncccc12)c1cccs1`, with 2760 nM. `Cc1cc(C)cc(C(=O)Nc2nc3ccccc3[nH]2)c1`: the EC50 was 6040 nM. With `CCn1c(=S)sc2c(=O)[nH]c(SCC(=O)Nc3cc(OC)ccc3OC)nc21`, the EC50 was 6580 nM. Then `CC1=NN(C(N)=S)C(=O)C1N=Nc1c(Br)cc(Br)cc1Br` (stereo unspecified), with 2780 nM. Take `O=C(COc1ccc(F)cc1Cl)Nc1nc(-c2ccccn2)cs1`: the EC50 was 1120 nM.

For `COc1cc(C)ccc1NC(=O)Cc1csc(NC(=O)Nc2ccccc2OC)n1`, the EC50 is 15700 nM.

As to `Cc1ccc(C(C)C)c(OCc2ccc(C(=O)N/N=C/c3ccc(O)cc3O)cc2)c1`, the concentration for a half-maximal effect (EC50) is 1260 nM. For the compound `O=c1c2cn[nH]c2nc(SCc2c(F)cccc2F)n1-c1ccc(Cl)cc1`, the EC50 is 11100 nM. Then `O=C(CN1CCCC1)Nc1ccc(NC(=O)Nc2ccccc2)cc1`, with > 15000 nM (inactive); and `CC1=NNC(=O)/C1=C\c1cn(-c2ccccc2)nc1-c1ccc(Cl)cc1`, with 5670 nM; and `Cc1cc(Cl)ccc1NC(=S)NCCC(c1ccccc1)c1ccccc1`, with 11100 nM. For `Cc1cccc(N2CCN(C(=O)c3cc4n(n3)C(C(F)(F)F)CC(c3ccco3)N4)CC2)c1C` (stereo unspecified), the EC50 is 4200 nM. Take `Cc1ccc(OCCn2c(=S)[nH]c3ccccc32)c(C(C)C)c1`: the EC50 is 2130 nM. Consider `CCC(C(=O)N1CCC(N2CCCCC2)CC1)n1nc(C)c2sc3ccccc3c2c1=O` (stereo unspecified), for which the EC50 is > 15000 nM (inactive). Take `c1ccc(-c2cc3c(NCC4COc5ccccc5O4)ncnc3s2)cc1` (stereo unspecified): the EC50 was 2980 nM. For `FC(F)(F)c1ccccc1/C=N/n1c(C2CCCCC2)n[nH]c1=S`, the 50% effective concentration (EC50) was 4760 nM. As for `O=C(Nc1nnc(C2=COCCO2)o1)c1cccc(F)c1`, the EC50 was 2370 nM.

With `Clc1ccc(CO/N=C(\Cn2ccnc2)c2ccc(Cl)cc2Cl)c(Cl)c1`, the EC50 was 1950 nM. Turning to `CSc1cccc(NC(=O)OC2CCCCCCCCCCC2)c1`, the EC50 is 4100 nM. Regarding `Cc1ccccc1NC(=O)NCCCCc1ccccc1`, the EC50 was > 15000 nM (inactive).

For the compound `O=C(Nc1ccccc1C(=O)Nc1nnc(C(F)(F)F)s1)c1ccccc1Cl`, the EC50 was 1340 nM. For `Oc1c(C(Nc2nc3ccccc3s2)c2ccco2)ccc2cccnc12` (stereo unspecified), the EC50 was 2980 nM. For `COc1ccc(Br)cc1[C@H]1[C@@H]2C=CCC[C@@]2(C)C(=O)N1Cc1ccccc1`, the EC50 is 4920 nM.

On to `CCCCNC(=O)c1cn(CC(C)C)c(=O)c2c1c1ccccc1n2C`, for which the 50% effective concentration (EC50) was 9020 nM.

Regarding `CCc1nn(CCCC(=O)NCc2ccccc2Br)c(=O)c2cc3occc3n12`, the EC50 is 2550 nM. For `Cc1ccc(Sc2cc(C)nc(-c3ccccn3)n2)cc1`, the 50% effective concentration (EC50) is 12400 nM. Turning to `COc1cccc(-c2nnc(Nc3nc4c(F)cccc4s3)o2)c1`, the EC50 is 502 nM. On to `O=C1N/C(=N\c2ccccn2)SC1Cc1ccc(Cl)cc1` (stereo unspecified), for which the EC50 is > 15000 nM (inactive). As for `COc1cccc(CC(=O)OCC(=O)Nc2nnc(-c3ccccc3)o2)c1`, the EC50 is 4580 nM.

Take `CSc1ccccc1-c1n[nH]c(=S)o1`: the EC50 is > 5000 nM (inactive). As to `Cc1cc(C)c2[nH]c(O)c(N=Nc3ccc(C(=O)O)cc3)c2c1`, the EC50 was 1800 nM. With `Cc1nn2c(COc3ccc(NC(=O)c4ccccc4Cl)cc3)nnc2c2ccccc12`, the EC50 is 1630 nM. As for `Cc1ccc(C)c(/C=C/C(=O)c2ccccc(=O)c2O)c1`, the EC50 is 1900 nM.

Turning to `Cc1ccccc1/C=C1\Sc2ccc(C(=O)N3CCN(c4ccccn4)CC3)cc2N(C)C1=O`, the EC50 was 6470 nM.

In the case of `CC[n+]1c(/C=C/N(C)c2ccccc2)n(-c2ccccc2)c2ccc(-c3nc4ccccc4s3)cc21`, the EC50 is 3610 nM. As to `Cc1ccc(S(=O)(=O)NCC(=O)OCC(=O)N2N=C(c3ccc(Cl)cc3)CC2c2ccco2)cc1C` (stereo unspecified), the half-maximal effective concentration (EC50) was 8170 nM. Regarding `O=C(NC(=S)N(CCCCO)C1CCCCC1)c1sc2ccccc2c1Cl`, the EC50 is 527 nM. Consider `O=C(Nc1nnc(-c2ccc3c(c2)CCCC3)o1)c1c(F)cccc1F`, for which the EC50 is 612 nM. For `CC1=C(C(=O)O)N2C(=O)C(NC(=O)Cc3ccccc3)C2SC1` (stereo unspecified), the EC50 is 1030 nM.
